Measurements as given in patent publication US11912691B2, “Tocotrienols derivates, methods and uses thereof” (GLOBAL SCIENTIFIC, priority 2020, dated 2024).
Entries after “also recorded” stand apart in the source; their conditions may differ. Where two headings read alike, the source gives them in different places. One block for each compound: values may come before it.

What was measured:
[1] = for Rank of the nicotinic acid level in the permeate solutions: within molecules without a linker / within molecules with a linker
Description: In an embodiment, the penetration into human skin and the conversion of the modified tocotrienols and modified α-tocotrienols with linkers molecules in the human skin were evaluated by permeation experiments using Franz diffusion cells. The conversion profile was evaluated and quantified by measuring nicotinic acid or nicotinyl alcohol in the permeate solutions.
In an embodiment, the skin permeation of the modified compounds was assessed. The permeation tests were performed with full thickness human skin. These samples were obtained at a local hospital, from healthy donors undergoing cosmetic surgery. The excised skin was stored in a PBS solution containing 10% antibiotic and maintained at 4° C., until further processing in the laboratory. When the skin sample was received, the underlying fat tissue was removed and discarded. The remaining skin (dermis and epidermis layers) was cut into pieces of approximately 1.5×1.5 cm. When the permeation experiments were executed with fresh skin, the samples were immediately used. Otherwise, the pre-cut skin samples were frozen at −80° C. and stored for further use. When reclaiming the frozen skin samples, the samples were removed from storage and thawed to room temperature for 1 hour before further manipulation.
The permeation experiments were performed in Franz diffusion cells. These diffusion cells are constituted by a donor compartment, where the formulation containing the permeate molecule is placed, and a receptor compartment containing the receptor fluid where the permeate molecule is collected and accumulated in time. The skin sample is placed between the donor and receptor compartments and is also equipped with a sampling access that allows for the collection of samples (a certain volume of the receptor fluid) without requiring the disassembly of the cell and therefore allows for the permeation experiment to continue (FIG. 3).
At the start of the experiment, the receptor compartment is filled with the receptor fluid, the skin sample is placed in place with care so as to not form air bubbles underneath. The donor receptor is positioned in place and clamped. The assembly is then placed in the thermostatic (37° C.) bath for 30 min to allow temperature equilibration. After the equilibration time, the level of the receptor fluid is adjusted as necessary. The receptor compartment is equipped with a magnetic mixer, ensuring the solution homogeneity during the course of the permeation experiment.
In an embodiment, the permeate solutions are monitored for the presence of nicotinic acid released from the modified tocopherol and tocotrienols molecules. The amount of nicotinic acid is quantified by HPLC using an ion pairing method. The concentration of nicotinic acid is calculated from a standard calibration curve of known nicotinic acid concentration solutions measured in the same conditions. The HPLC analysis is performed on a Knauer chromatograph consisting of 3 modules: Smartline manager 5000, Smartline pump 1000 and Smartline UV Detector 2600. The UV detector is fitted with a photodiode array (PDA) which allows for the continuous monitoring from 190-450 nm. The online chromatograms are monitored at 254 nm. The eluent comprises an ion-pairing eluent (50 mM of tetrabutylammonium hydroxide (TBAOH), pH corrected to 7.4 with hydrogenphosphate dibasic ([…])) containing 10% of acetonitrile at a flow of 1 mL/min and the column used is an Atlantis T3 4.6×250 mm (with guard column of same type 4.6×20 mm) at 30° C.
In an embodiment, the skin permeation experiments are performed with formulations of different concentrations of modified tocotrienol and tocopherol molecules. The modified molecules are dissolved at concentrations of 5% and 10% m/m in a mixture of equal volumes of 2-(2-ethoxyethoxy)ethanol and propylene glycol and 150 μl of these solutions are applied on the skin samples.

[2] = Chemical stability in a cosmetic formulation, accelerated aging test (45° C., 3 months); settings: for % of the Compound after 3 Months: 0.1% m/m in cosmetic formulation, oven at 45° C., HPLC; for Stability in the cosmetic formulation (in words): 45° C., ferulyl compound also in cold storage; for % of the Compound after 3 Months / Stability in the cosmetic formulation (in words): 3 months
Description: In an embodiment, the chemical stability of the modified molecules was evaluated in accelerated degradation tests. For this purpose, the test molecules were formulated in a cosmetic relevant formulation and its degradations were assessed for a period of 3 months.
In an embodiment, the cosmetic formulation may comprise water, jojoba seed oil, butylene glycol, squalane, sodium hyaluronate, cetearyl alcohol and a carbomer.
In an embodiment, test molecules were added to the cosmetic formulation at 0.1% m/m level, thoroughly homogenized to ensure uniform dispersion and stored in closed glass bottles in an oven at 45° C. for 3 months. In order to evaluate homogeneity and stability, 3 samples were collected from random positions immediately after preparation and at each time point evaluated. The quantification of the test molecules was performed by HPLC.
In an embodiment, the preparation of the mixtures for evaluation of the stability was performed according to the following experimental protocol. The mass of compound was weighed and dissolved in 2-(2-ethoxyethoxy)ethanol (also weighed) and added to a known mass of moisturizer product. The mixture was homogenized, and 3 samples were collected to confirm homogenous distribution and initial concentration of modified molecules. The mixtures were then stored in an oven at 45° C. for 3 months (Table IV).
In an embodiment, the stability of the test molecules in the cosmetic formulation was determined. The test mixtures were sampled in triplicate from random zones. The samples were prepared for analysis by solubilizing them in acetonitrile and the quantification of the modified and non-modified tocopherol and tocotrienol molecules was performed by HPLC. The % of the initial compounds is described in Table IV.

[3] = modified α-tocotrienols with linkers, donor solution 10% m/m, 24 hours
[4] = modified α-tocotrienols with linkers, donor solution 10% m/m, 48 hours
[5] = donor solution 5% m/m, 48 hours, human skin, Franz cell
[6] = donor solution 10% m/m, 48 hours, human skin, Franz cell

Rate of conversion into the parent molecules relative to the other modified tocotrienols ([1]; human skin): higher rate
Concentration of nicotinic acid in the permeate solution [1, 3]: 3020 ng/mL
Concentration of nicotinic acid in the permeate solution [1, 4]: 8180 ng/mL
Rank of the nicotinic acid level in the permeate solutions [1]: highest level
% of the Compound after 3 Months [2]: ≥95%
Stability in the cosmetic formulation (in words) [2]: excellent stability
SMILES: CC(C)=CCC/C(C)=C/CC/C(C)=C/CCC1(C)CCc2c(C)c(OC(=O)COC(=O)c3cccnc3)c(C)c(C)c2O1 (stereo not drawn) [α-tocotrienyl glycolyl nicotinate]

Concentration of nicotinic acid in the permeate solution ([1]; donor solution 5% m/m, 24 hours, human skin, Franz cell): 320 ng/mL
Concentration of nicotinic acid in the permeate solution ([1]; donor solution 5% m/m, 33 hours, human skin, Franz cell): 540 ng/mL
Concentration of nicotinic acid in the permeate solution [1, 5]: 890 ng/mL
Concentration of nicotinic acid in the permeate solution [1, 6]: 2830 ng/mL
Rate of conversion into the parent molecules relative to the other modified tocotrienols ([1]; human skin): higher rate
Release of nicotinic acid relative to α-tocopheryl nicotinate ([1]; human skin, Franz cell): faster
Release of nicotinic acid relative to γ-tocotrienyl nicotinate or δ-tocotrienyl nicotinate ([1]; human skin, Franz cell): three times faster
Rank of the nicotinic acid level in the permeate solutions [1]: highest level
% of the Compound after 3 Months [2]: ≥95%
SMILES: CC(C)=CCC/C(C)=C/CC/C(C)=C/CCC1(C)CCc2c(C)c(OC(=O)c3cccnc3)c(C)c(C)c2O1 (stereo not drawn) [α-tocotrienyl nicotinate]

Remaining fraction of the initial mass after 3 months of accelerated aging [2]: > 95%
% of the Compound after 3 Months [2]: ≥95%
SMILES: CC(C)=CCCC(C)=CCCC(C)=CCCC1(C)CCc2c(C)c(OC(=O)CCC(=O)OCc3cccnc3)c(C)c(C)c2O1 (stereo not drawn) [α-tocotrienyl nicotinyl succinate]

% of the Compound after 3 Months [2]: ≥95%
SMILES: CC(C)=CCCC(C)=CCCC(C)=CCCC1(C)CCc2cc(OC(=O)c3cccnc3)cc(C)c2O1 (stereo not shown) [δ-tocotrienyl nicotinate]

% of the Compound after 3 Months [2]: ≥95%
SMILES: Cc1c(C)c2c(c(C)c1OC(=O)c1cccnc1)CC[C@@](C)(CCC[C@H](C)CCC[C@H](C)CCCC(C)C)O2 [α-tocopheryl nicotinate, reference compound]

Concentration of nicotinic acid in the permeate solution [1, 3]: 180 ng/mL
Concentration of nicotinic acid in the permeate solution [1, 4]: 380 ng/mL
% of the Compound after 3 Months [2]: ≥95%
Stability in the cosmetic formulation (in words) [2]: excellent stability
SMILES: CC(C)=CCC/C(C)=C/CC/C(C)=C/CCC1(C)CCc2c(C)c(OC(=O)CNC(=O)c3cccnc3)c(C)c(C)c2O1 (stereo not drawn) [α-tocotrienyl glycinyl nicotinate]

% of the Compound after 3 Months [2]: 57%
SMILES: CC(C)=CCC/C(C)=C/CC/C(C)=C/CC[C@]1(C)CCc2cc(O)cc(C)c2O1 [δ-tocotrienol, reference compound]

Concentration of nicotinic acid in the permeate solution [1, 3]: 1190 ng/mL
Concentration of nicotinic acid in the permeate solution [1, 4]: 2960 ng/mL
% of the Compound after 3 Months [2]: 0%
SMILES: COc1cc(/C=C/C(=O)Oc2c(C)c(C)c3c(c2C)CCC(C)(CC/C=C(\C)CC/C=C(\C)CCC=C(C)C)O3)ccc1OC(=O)c1cccnc1 (stereo not drawn) [α-tocotrienyl ferulyl nicotinate]
Stability in the cosmetic formulation (in words) [2]: unstable even in cold storage conditions; also recorded: not stable

SMILES: CC(C)=CCC/C(C)=C/CC/C(C)=C/CC[C@]1(C)CCc2cc(O)c(C)c(C)c2O1 [γ-tocotrienol, reference compound]
% of the Compound after 3 Months [2]: 20%

% of the Compound after 3 Months [2]: 53%
SMILES: CC(C)=CCC/C(C)=C/CC/C(C)=C/CC[C@]1(C)CCc2c(C)c(O)c(C)c(C)c2O1 [α-tocotrienol, reference compound]

% of the Compound after 3 Months [2]: 44%
SMILES: Cc1c(C)c2c(c(C)c1O)CC[C@@](C)(CCC[C@H](C)CCC[C@H](C)CCCC(C)C)O2 [α-tocopherol, reference compound]

Concentration of nicotinic acid in the permeate solution [1, 5]: 90 ng/mL
Concentration of nicotinic acid in the permeate solution [1, 6]: 700 ng/mL
% of the Compound after 3 Months [2]: ≥95%
SMILES: CC(C)=CCC/C(C)=C/CC/C(C)=C/CCC1(C)CCc2cc(OC(=O)c3cccnc3)c(C)c(C)c2O1 (stereo not shown) [γ-tocotrienyl nicotinate]
